Reference: ChEMBL document CHEMBL1201862, “PubChem BioAssay data set” (2004)
The source made the active and inactive calls.

Legend:
[1] = biological target: Voltage-dependent T-type calcium channel subunit alpha-1H (Homo sapiens, UniProt O95180); type: functional;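 note: channel activity triggered by adding a high calcium stimulation buffer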
Large T antigen = Large T antigen (Simian virus 40, UniProt P03070); type: functional, Betapolyomavirus macacae;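 note: Confirmatory-stage PubChem screen for compounds that inhibit SV40 T antigen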
Leucine aminopeptidase = biological target: T1, Leucine aminopeptidase (Plasmodium falciparum 3D7, UniProt Q8IL11); experiment: P. falciparum M17LAP inhibitors, primary screen, biochemical, fluorogenic H-Leu-NHMec substrate, 1536-well (AID 1619); type: functional
T1 sequence (Q8IL11 whole entry): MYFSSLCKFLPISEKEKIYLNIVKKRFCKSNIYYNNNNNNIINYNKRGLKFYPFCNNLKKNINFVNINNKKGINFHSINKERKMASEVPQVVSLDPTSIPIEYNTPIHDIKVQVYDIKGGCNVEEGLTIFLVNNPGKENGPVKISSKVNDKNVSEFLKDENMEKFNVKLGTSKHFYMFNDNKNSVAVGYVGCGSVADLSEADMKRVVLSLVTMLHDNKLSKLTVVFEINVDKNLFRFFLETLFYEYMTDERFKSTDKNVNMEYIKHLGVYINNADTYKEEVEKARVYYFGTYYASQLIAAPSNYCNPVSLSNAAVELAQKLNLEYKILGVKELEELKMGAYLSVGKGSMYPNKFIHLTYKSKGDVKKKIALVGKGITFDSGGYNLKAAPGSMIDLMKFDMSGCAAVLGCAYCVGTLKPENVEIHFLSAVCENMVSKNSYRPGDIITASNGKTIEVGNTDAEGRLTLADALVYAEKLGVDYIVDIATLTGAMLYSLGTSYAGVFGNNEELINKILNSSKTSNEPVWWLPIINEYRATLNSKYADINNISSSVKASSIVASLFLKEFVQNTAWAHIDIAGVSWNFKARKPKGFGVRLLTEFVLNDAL

[2] = biological target: T2, RNA-binding protein pos-1 (Caenorhabditis elegans, UniProt G5EF15); experiment: inhibitors of POS-1/mex-3 RNA binding, dose response, biochemical, fluorescence polarization (AID 1964);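 note: purified POS-1 fused to maltose binding protein made in E. coli; potency of compounds blocking POS-1 binding to fluorescent RNA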
T2 sequence (G5EF15 whole entry): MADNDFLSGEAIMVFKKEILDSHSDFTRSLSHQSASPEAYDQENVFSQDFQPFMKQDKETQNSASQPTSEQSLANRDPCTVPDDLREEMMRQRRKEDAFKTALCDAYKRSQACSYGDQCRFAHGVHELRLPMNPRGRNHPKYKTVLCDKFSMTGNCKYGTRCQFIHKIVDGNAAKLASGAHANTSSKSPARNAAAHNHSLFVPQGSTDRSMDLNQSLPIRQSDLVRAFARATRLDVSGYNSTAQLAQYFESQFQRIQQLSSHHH

Fatty acid synthase [3] = biological target: T3, Fatty acid synthase (Homo sapiens, UniProt P49327); experiment: FAS thioesterase domain inhibitors, dose response, biochemical, endpoint fluorescence intensity, uHTS hits (AID 624327); type: functional;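 note: fluorescence from hydrolysis of an O-methyl fluorescein acyl ester substrate by the enzyme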
Fatty acid synthase [4] = biological target: T3, Fatty acid synthase; experiment: FAS thioesterase domain inhibitors, dose response, biochemical, kinetic fluorescence intensity (AID 624326); type: functional;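 note: rate of fluorescence rise from hydrolysis of a fluorogenic O-methyl fluorescein ester substrate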
[5] = biological target: T4, Zinc finger protein mex-5 (Caenorhabditis elegans, UniProt Q9XUB2); experiment: MEX-5/TCR-2 RNA interaction inhibitors, dose response, biochemical, C. elegans, fluorescence polarization (AID 1960)
T4 sequence (Q9XUB2 whole entry): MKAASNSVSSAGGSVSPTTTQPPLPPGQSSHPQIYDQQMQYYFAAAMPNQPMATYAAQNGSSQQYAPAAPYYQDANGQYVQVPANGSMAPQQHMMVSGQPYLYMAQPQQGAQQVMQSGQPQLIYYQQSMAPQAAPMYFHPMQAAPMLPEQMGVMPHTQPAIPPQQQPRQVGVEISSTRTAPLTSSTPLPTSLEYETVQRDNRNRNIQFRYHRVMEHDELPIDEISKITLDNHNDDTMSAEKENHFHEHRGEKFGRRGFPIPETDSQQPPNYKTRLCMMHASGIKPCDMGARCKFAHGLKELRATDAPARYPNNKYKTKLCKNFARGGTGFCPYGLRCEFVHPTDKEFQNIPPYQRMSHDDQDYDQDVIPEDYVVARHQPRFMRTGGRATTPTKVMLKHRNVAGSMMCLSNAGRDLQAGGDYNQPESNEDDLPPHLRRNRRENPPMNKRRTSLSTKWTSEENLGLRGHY

[6] = biological target: Glucose-6-phosphate 1-dehydrogenase (Homo sapiens, UniProt P11413); experiment: human G6PD enzyme inhibitors, dose response, selectivity assay for P. falciparum G6PD inhibitor project, biochemical, fluorescence (AID 504792); type: functional
[7] = off-target signal loss in HeLa-CEM21 co-culture – HeLa F-luc CTL cells, cherry-picked, counter-screen for HIV-1 Env fusion inhibitor project, dose response (AID 652040); type: functional, cell-based;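 note: potency for signal decrease marking cytotoxic or nonspecific inhibition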
[8] = inhibitors of clade B AD8 Env fusion, dose response, cell-based, cherry-pick (AID 652062); type: functional;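 note: luciferase signal from cell-cell fusion driven by HIV-1 clade B AD8 Env; potency is for inhibitors of fusion seen as a drop in luminescence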
[9] = ZM109 Env clade C HIV-1 fusion inhibitors, dose response, HeLa effector, CEM target cells, luciferase, cherry-pick (AID 652058); type: functional, cell-based
[10] = inhibitors of HIV Env-driven cell fusion, dose response, cherry-pick (AID 652057); type: functional, cell-based
[11] = biological target: T5, Rac GTPase-activating protein 1 (Homo sapiens, UniProt Q9H0H5); experiment: MgcRacGAP GTPase-activating activity inhibitors, confirmation, biochemical, ADP Hunter fluorescence, primary and confirmatory (AID 624330); type: functional
T5 sequence (Q9H0H5 whole entry): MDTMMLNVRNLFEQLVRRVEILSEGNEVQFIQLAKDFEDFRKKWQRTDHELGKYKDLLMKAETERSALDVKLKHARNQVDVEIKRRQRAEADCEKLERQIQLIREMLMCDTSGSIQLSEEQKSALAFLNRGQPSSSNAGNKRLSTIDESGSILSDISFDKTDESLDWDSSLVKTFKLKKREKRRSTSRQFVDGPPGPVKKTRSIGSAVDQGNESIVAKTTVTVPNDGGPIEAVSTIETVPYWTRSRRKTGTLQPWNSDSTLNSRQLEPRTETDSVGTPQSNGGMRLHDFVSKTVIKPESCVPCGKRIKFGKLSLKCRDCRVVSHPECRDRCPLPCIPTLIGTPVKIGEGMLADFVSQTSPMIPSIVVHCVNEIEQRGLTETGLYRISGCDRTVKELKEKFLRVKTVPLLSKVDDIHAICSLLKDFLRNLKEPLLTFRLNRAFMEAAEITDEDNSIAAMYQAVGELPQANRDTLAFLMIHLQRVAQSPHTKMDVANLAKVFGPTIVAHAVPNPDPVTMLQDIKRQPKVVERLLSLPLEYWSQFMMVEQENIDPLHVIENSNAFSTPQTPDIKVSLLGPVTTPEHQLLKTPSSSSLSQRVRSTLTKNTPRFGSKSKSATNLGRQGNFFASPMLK

[12] = biological target: T6, Polyadenylate-binding protein 1 (Homo sapiens, UniProt P11940); experiment: PABP1 MLLE–PAM2 interaction inhibitors, dose response, miRNA deadenylation inhibitor project, biochemical, fluorescence polarization, Cy5-PAM2 peptide, secondary (AID 602260); type: functional; details: read-out: IC50_Mean
[13] = biological target: T6, Polyadenylate-binding protein 1; experiment: PABP1 MLLE–PAM2 binding inhibitor potency, dose response, biochemical, fluorescence polarization, FITC-PAM2 peptide (AID 602259); type: functional; details: read-out: IC50_Mean
Cytochrome P450 3A4 = Cytochrome P450 3A4 (Homo sapiens, UniProt P08684);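 note: CYP3A4 tested as one member of a cytochrome P450 panel screen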
Cytochrome P450 2C19 = Cytochrome P450 2C19 (Homo sapiens, UniProt P33261); experiment: Cytochrome panel assay with activity outcomes. Panel member name: p450-cyp2c19 Compounds with AC50 equal or less than 10 uM are considered active; type: functional; details: read-out: AC50
Vero = experiment: cells; type: functional; details: Chlorocebus sabaeus

Chain of Voltage-dependent T-type calcium channel subunit alpha-1H (O95180 whole entry): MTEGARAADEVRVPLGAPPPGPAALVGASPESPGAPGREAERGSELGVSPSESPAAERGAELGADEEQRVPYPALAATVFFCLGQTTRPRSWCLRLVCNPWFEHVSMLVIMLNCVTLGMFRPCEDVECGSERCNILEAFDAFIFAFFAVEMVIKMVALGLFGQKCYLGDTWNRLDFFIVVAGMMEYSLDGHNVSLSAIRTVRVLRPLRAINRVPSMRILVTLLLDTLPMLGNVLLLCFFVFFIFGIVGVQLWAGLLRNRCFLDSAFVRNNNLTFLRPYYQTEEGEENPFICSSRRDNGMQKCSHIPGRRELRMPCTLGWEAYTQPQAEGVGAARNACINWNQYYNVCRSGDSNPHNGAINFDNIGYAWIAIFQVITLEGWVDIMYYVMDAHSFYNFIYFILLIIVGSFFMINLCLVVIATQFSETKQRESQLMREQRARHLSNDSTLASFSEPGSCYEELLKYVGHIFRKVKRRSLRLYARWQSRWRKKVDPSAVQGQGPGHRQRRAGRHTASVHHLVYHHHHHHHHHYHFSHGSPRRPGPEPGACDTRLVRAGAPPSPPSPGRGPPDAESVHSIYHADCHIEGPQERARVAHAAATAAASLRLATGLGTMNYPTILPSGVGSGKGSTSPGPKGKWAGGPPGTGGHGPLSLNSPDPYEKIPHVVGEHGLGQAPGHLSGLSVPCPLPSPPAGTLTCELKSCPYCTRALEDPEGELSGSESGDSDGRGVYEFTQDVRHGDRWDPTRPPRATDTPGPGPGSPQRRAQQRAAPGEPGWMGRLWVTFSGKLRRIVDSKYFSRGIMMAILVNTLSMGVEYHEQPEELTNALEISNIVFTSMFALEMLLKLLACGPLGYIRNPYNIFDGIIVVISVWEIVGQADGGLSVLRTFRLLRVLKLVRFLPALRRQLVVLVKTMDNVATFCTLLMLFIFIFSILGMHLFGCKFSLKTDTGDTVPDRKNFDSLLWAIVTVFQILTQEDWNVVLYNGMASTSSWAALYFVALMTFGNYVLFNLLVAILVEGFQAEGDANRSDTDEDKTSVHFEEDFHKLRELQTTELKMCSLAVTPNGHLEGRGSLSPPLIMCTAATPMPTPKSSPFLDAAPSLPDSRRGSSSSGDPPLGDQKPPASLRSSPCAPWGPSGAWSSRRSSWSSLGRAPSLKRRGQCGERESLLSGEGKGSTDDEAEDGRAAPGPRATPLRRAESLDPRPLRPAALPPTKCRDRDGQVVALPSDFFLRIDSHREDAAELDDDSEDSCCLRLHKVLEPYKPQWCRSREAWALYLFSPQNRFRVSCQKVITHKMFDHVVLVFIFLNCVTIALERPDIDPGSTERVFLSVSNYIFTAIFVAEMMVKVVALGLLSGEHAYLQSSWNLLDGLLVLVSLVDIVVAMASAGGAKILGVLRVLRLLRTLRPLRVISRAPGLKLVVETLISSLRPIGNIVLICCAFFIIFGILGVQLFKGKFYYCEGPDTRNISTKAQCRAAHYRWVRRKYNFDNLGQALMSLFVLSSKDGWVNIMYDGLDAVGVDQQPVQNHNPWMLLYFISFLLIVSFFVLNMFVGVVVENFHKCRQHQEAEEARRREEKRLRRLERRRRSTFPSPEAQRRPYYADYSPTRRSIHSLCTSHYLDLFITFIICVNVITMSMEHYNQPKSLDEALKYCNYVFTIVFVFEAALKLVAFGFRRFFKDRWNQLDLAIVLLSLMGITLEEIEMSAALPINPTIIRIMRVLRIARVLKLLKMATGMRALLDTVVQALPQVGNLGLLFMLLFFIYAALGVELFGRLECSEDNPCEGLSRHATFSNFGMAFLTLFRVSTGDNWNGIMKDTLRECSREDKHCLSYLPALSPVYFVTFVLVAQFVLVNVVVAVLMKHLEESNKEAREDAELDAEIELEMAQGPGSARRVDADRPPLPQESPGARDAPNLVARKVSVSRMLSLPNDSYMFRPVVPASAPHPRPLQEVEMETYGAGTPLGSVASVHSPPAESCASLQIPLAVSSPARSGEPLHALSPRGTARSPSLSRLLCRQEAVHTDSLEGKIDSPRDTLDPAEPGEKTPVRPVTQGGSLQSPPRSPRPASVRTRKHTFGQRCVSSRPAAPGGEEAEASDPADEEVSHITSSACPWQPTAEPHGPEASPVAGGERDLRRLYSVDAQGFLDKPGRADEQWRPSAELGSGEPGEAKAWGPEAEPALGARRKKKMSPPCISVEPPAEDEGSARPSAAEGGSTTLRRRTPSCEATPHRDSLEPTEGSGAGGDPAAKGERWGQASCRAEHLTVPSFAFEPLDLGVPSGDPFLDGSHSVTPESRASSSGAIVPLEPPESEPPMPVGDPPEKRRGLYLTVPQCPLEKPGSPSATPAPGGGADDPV
T3 sequence (P49327 whole entry, the tested form may be a part): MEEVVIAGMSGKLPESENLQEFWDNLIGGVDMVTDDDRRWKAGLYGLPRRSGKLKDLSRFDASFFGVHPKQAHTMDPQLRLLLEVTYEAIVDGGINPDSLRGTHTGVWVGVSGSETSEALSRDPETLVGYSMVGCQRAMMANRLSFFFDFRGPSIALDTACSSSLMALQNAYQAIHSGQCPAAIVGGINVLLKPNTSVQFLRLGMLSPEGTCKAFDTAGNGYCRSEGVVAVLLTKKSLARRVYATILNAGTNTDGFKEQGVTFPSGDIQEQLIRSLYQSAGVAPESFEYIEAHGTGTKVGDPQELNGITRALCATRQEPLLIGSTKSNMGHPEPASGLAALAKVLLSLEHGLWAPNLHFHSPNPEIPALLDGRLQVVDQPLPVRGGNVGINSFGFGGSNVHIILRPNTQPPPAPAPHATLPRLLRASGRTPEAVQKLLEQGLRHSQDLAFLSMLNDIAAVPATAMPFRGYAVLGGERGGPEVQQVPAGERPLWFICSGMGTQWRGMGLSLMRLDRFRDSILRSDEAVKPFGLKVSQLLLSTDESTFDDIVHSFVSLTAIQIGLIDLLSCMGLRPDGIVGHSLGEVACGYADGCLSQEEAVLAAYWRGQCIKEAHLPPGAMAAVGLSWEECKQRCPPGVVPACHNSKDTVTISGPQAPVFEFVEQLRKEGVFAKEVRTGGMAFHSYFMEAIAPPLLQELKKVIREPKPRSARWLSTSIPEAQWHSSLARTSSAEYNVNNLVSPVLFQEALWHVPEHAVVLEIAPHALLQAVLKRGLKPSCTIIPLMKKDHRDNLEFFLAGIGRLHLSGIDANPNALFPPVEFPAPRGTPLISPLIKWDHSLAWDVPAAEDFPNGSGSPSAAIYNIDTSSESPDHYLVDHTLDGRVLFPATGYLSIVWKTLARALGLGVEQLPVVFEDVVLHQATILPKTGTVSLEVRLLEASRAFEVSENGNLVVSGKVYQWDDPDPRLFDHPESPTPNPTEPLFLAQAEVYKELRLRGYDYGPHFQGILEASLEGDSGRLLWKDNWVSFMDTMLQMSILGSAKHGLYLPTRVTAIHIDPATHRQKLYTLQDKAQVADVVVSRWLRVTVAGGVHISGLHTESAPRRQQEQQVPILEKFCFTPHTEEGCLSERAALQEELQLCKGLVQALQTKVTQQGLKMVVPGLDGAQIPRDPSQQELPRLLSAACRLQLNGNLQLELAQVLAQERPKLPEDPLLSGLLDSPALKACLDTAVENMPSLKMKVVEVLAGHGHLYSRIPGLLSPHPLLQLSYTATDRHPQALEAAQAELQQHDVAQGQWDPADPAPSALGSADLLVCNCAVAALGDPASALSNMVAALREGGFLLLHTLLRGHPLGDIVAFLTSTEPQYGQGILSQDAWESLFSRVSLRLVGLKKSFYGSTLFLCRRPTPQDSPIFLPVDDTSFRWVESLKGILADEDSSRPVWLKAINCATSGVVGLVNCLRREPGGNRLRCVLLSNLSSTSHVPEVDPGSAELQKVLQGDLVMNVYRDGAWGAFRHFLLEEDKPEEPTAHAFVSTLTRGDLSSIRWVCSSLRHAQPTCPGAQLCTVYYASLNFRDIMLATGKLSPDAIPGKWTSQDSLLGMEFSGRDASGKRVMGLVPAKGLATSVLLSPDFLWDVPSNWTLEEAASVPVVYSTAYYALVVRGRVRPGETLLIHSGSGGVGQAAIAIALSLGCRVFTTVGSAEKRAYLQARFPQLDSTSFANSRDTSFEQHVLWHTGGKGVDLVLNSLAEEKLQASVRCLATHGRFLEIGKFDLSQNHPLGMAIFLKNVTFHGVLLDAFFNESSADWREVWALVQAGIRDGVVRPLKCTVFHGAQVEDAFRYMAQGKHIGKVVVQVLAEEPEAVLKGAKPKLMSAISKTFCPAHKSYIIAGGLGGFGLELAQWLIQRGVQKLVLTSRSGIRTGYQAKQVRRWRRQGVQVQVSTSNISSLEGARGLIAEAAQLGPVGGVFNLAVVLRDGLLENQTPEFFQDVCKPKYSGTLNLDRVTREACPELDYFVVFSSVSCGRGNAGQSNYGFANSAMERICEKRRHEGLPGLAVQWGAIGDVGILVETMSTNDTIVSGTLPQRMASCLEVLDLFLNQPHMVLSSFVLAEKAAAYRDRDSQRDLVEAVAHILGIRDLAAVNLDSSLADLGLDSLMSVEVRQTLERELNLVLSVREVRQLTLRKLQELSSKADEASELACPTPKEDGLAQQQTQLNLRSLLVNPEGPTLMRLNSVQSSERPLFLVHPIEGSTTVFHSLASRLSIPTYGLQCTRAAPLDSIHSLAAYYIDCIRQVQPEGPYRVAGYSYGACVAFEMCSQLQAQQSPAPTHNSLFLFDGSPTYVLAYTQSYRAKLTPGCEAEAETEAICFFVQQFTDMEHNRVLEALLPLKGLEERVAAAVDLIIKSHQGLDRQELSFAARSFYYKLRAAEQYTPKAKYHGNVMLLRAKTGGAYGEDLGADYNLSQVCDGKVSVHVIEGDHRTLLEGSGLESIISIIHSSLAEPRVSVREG

## O=C(c1ccc(Cl)c(Cl)c1)N1CCC(=O)N(C(COCc2ccccc2)Cc2ccccc2)CC1 (stereo not given)
[1]
  EC50: 2.88 µM (active)

## COC(=O)C1=C(O)/C(=C/c2cccc(OC)c2O)N=C1C
Large T antigen
  IC50: 14.8 µM (active)

## CC(=O)Nc1c(O)nc(SCC(=O)Nc2sc3c(c2C#N)CCCCCC3)nc1O
Leucine aminopeptidase
  IC50: 27.9 µM (active)

## O=C1NC(=O)/C(=C2\C(=O)Nc3ccc([N+](=O)[O-])cc32)S1
[2]
  EC50: 13.2 µM (active)
Fatty acid synthase [3]
  IC50: 13.8 µM (active)
Fatty acid synthase [4]
  IC50: 9.24 µM (active)
[5]
  EC50: 21.5 µM (inconclusive)

## COc1ccc(CNC(=O)Cc2cn(C)c3ccccc23)c(OC)c1
[6]
  IC50: > 80 µM (inactive)

## CCN(C[C@H]1N[C@@](CC)(C(=O)OC)[C@H]2C(=O)N(Cc3ccccc3)C(=O)[C@@H]12)C(=O)Nc1ccc(Cl)cc1
[7]
  AC50: 0.367 µM (active)
[8]
  AC50: 0.277 µM (active)
[9]
  AC50: < 0.26 µM (active)
[10]
  AC50: < 0.26 µM (active)

## Cc1ccsc1/C=C1/C(=O)NN(c2ccccc2)C1=O
Large T antigen
  IC50: 28.1 µM (active)

## CCOC1=C2[C@@H](CN(S(=O)(=O)c3ccccc3C)[C@H]2c2ccc(Cl)cc2)[C@H]2C(=O)NC(=O)[C@H]2C1
[7]
  AC50: 7.02 µM (active)
[8]
  AC50: 19.5 µM (active)
[9]
  AC50: 3.92 µM (active)
[10]
  AC50: 3.71 µM (active)

## C/C(=N/Nc1ccc(C(=O)O)cc1)c1ccc2c(c1)Nc1ccccc1S2
Fatty acid synthase [3]
  IC50: 13.2 µM (active)
Fatty acid synthase [4]
  IC50: 11.1 µM (active)
[11]
  IC50: 50.6 µM (active)

## NC(=O)c1c(NC(=O)C2CCCO2)sc2c1CCCCC2 (stereo not given)
[12]
  IC50: > 66 µM (inactive)
Leucine aminopeptidase
  IC50: 58.7 µM (active)
[13]
  IC50: > 66 µM (inactive)

## Cc1ccc(S(=O)(=O)N2CCN(S(=O)(=O)c3ccc(C)cc3)C2c2ccccc2)cc1
[7]
  AC50: 4.72 µM (active)
[8]
  AC50: 1.58 µM (active)
[9]
  AC50: 4.2 µM (active)
[10]
  AC50: 4.63 µM (active)

## CCc1ccc(C(=O)COC(=O)c2cc([N+](=O)[O-])ccc2NCCO)cc1
Fatty acid synthase [3]
  IC50: 1.87 µM (active)
Fatty acid synthase [4]
  IC50: 3.82 µM (active)

## CCC(=O)C1=C(NCCc2c(C)[nH]c3ccc(C)cc23)CC(c2ccccc2)CC1=O (stereo not given)
[1]
  EC50: 798 µM (active)

## Cc1ccc(NC(=O)CN(C)C(=O)CSc2n[nH]c(N)n2)cc1
Leucine aminopeptidase
  IC50: 44.7 µM (active)
Cytochrome P450 3A4
  AC50: 31.6 µM (inconclusive)
Cytochrome P450 2C19
  AC50: 0.0355 µM (inconclusive)

## CCCCN(Cc1ccccc1)S(=O)(=O)c1cc(Br)cc2c1N(C(C)=O)C(C)C2 (stereo not given)
[1]
  EC50: 18.2 µM (active)

## Cc1cc(NC(=O)/C=C/C(=O)N(c2ccccc2C)C(C(=O)NC2CCCC2)c2ccc(F)cc2)no1 (stereo not given)
Vero
  CC50: 12.1 µM (active)
